Like-named read-outs stand apart in the source and are kept apart here.
Assays:
[1] = system: Key Broadleaf Weed and Crop Species; experiment: Post-emergent Test II herbicidal activity (Table 5); assay type: in vivo; conditions: post-emergence, 336 h, 14 days after application; for pest or weed control at 70 g/ha: application rate 70 g ai/ha; for pest or weed control at 140 g/ha: application rate 140 g ai/ha
Procedure, shortened: (§1)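 Visual injury ratings (0 = no injury, 100 = complete kill) were taken 14 d after treatment, relative to untreated plants. Seedlings at the first–second true leaf stage received overhead spray at 187 L/ha; the highest rate was serially diluted to ½×, ¼×, ⅛× and 1/16×.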

[2] = system: Key Grass and Sedge Weeds as well as Grass Crops; experiment: Post-emergent Test II herbicidal activity (Table 6); assay type: in vivo; conditions: post-emergence, 336 h; for pest or weed control at 70 g/ha: 70 g ai/ha; for pest or weed control at 140 g/ha: 140 g ai/ha
Procedure, shortened: as §1

[3] = ABUTH: velvetleaf (Abutilon theophrasti), read-out: Visual Growth Reduction (%) 14 Days After Application, ABUTH
[4] = AMARE: redroot pigweed (Amaranthus retroflexus), read-out: Visual Growth Reduction (%) 14 Days After Application, AMARE
[5] = BRSNN: oilseed-rape, canola (Brassica napus), read-out: Visual Growth Reduction (%) 14 Days After Application, BRSNN
[6] = CHEAL: lambsquarters (Chenopodium album), read-out: Visual Growth Reduction (%) 14 Days After Application, CHEAL
[7] = EPHHL: wild poinsettia (Euphorbia heterophylla), read-out: Visual Growth Reduction (%) 14 Days After Application, EPHHL
[8] = HELAN: sunflower (Helianthus annuus), read-out: Visual Growth Reduction (%) 14 Days After Application, HELAN
[9] = VIOTR: wild pansy (Viola tricolor), read-out: Visual Growth Reduction (%) 14 Days After Application, VIOTR
[10] = CYPES: yellow nutsedge (Cyperus esculentus), read-out: Visual Growth Reduction (%) 14 Days After Application, CYPES
[11] = DIGSA: crabgrass (Digitaria sanguinalis), read-out: Visual Growth Reduction (%) 14 Days After Application, DIGSA
[12] = ECHCG: barnyardgrass (Echinochloa crus-galli), read-out: Visual Growth Reduction (%) 14 Days After Application, ECHCG
[13] = ORYSA: rice (Oryza sativa), crop, read-out: Visual Growth Reduction (%) 14 Days After Application, ORYSA
[14] = SETFA: giant foxtail (Setaria faberi), read-out: Visual Growth Reduction (%) 14 Days After Application, SETFA
[15] = SORVU: grain sorghum (Sorghum vulgare), read-out: Visual Growth Reduction (%) 14 Days After Application, SORVU
[16] = TRZSS (wheat, Triticum aestivum), crop, read-out: Visual Growth Reduction (%) 14 Days After Application, TRZSS
[17] = ZEAMX: maize, corn (Zea mays), crop, read-out: Visual Growth Reduction (%) 14 Days After Application, ZEAMX

Row | SMILES | pest or weed control at 70 g/ha [1, 3] | pest or weed control at 140 g/ha [1, 3] | pest or weed control at 70 g/ha [1, 4] | pest or weed control at 140 g/ha [1, 4] | pest or weed control at 70 g/ha [1, 5] | pest or weed control at 140 g/ha [1, 5] | pest or weed control at 70 g/ha [1, 6] | pest or weed control at 140 g/ha [1, 6] | pest or weed control at 70 g/ha [1, 7] | pest or weed control at 140 g/ha [1, 7] | pest or weed control at 70 g/ha [1, 8] | pest or weed control at 140 g/ha [1, 8] | pest or weed control at 70 g/ha [1, 9] | pest or weed control at 140 g/ha [1, 9] | pest or weed control at 70 g/ha [2, 10] | pest or weed control at 140 g/ha [2, 10] | pest or weed control at 70 g/ha [2, 11] | pest or weed control at 140 g/ha [2, 11] | pest or weed control at 70 g/ha [2, 12] | pest or weed control at 140 g/ha [2, 12] | further results
1 | COC(=O)c1nc(-c2ccc(I)c(F)c2)c(F)c(N)c1Cl [Compound 132] | 95 to 100% | 95 to 100% | 95 to 100% | 95 to 100% | 95 to 100% | 95 to 100% | 95 to 100% | 95 to 100% | 95 to 100% | 95 to 100% | 95 to 100% | 95 to 100% | 95 to 100% | 95 to 100% | 45 to 59% | 85 to 94% | 85 to 94% | 85 to 94% | 85 to 94% | 75 to 84% | pest or weed control at 70 g/ha [2, 13]: 0 to 29%; pest or weed control at 140 g/ha [2, 13]: 0 to 29%; pest or weed control at 70 g/ha [2, 14]: 0 to 29%; pest or weed control at 140 g/ha [2, 14]: 60 to 74%; pest or weed control at 70 g/ha [2, 15]: 85 to 94%; pest or weed control at 140 g/ha [2, 15]: 95 to 100%; pest or weed control at 70 g/ha [2, 16]: 0 to 29%; pest or weed control at 140 g/ha [2, 16]: 30 to 44%; pest or weed control at 70 g/ha [2, 17]: 95 to 100%; pest or weed control at 140 g/ha [2, 17]: 95 to 100%; melting point: 138 to 140 °C
2 | C#Cc1ccc(-c2nc(C(=O)OC)c(Cl)c(N)c2F)cc1F [Compound 133, methyl 4-amino-3-chloro-6-(4-ethynyl-3-fluorophenyl)-5-fluoropicolinate] | 85 to 94% | 95 to 100% | 75 to 84% | 75 to 84% | 75 to 84% | 95 to 100% | 95 to 100% | 95 to 100% | 85 to 94% | 95 to 100% | 95 to 100% | 95 to 100% | 0 to 29% | 30 to 44% | 30 to 44% | 45 to 59% | 0 to 29% | 60 to 74% | 0 to 29% | 60 to 74% | pest or weed control at 70 g/ha [2, 13]: 0 to 29%; pest or weed control at 140 g/ha [2, 13]: 0 to 29%; pest or weed control at 70 g/ha [2, 14]: 45 to 59%; pest or weed control at 140 g/ha [2, 14]: 75 to 84%; pest or weed control at 70 g/ha [2, 15]: 60 to 74%; pest or weed control at 140 g/ha [2, 15]: 75 to 84%; pest or weed control at 70 g/ha [2, 16]: 30 to 44%; pest or weed control at 140 g/ha [2, 16]: 30 to 44%; pest or weed control at 70 g/ha [2, 17]: 95 to 100%; pest or weed control at 140 g/ha [2, 17]: 95 to 100%; melting point: 141 to 143 °C
3 | Nc1c(F)c(-c2ccc(C(F)(F)F)c(F)c2)nc(C(=O)O)c1Cl [Compound 134] | 85 to 94% | 85 to 94% | 85 to 94% | 95 to 100% | 95 to 100% | 95 to 100% | 95 to 100% | 95 to 100% | 95 to 100% | 95 to 100% | 95 to 100% | 95 to 100% | 95 to 100% | 95 to 100% | 95 to 100% | 95 to 100% | 75 to 84% | 85 to 94% | 95 to 100% | 95 to 100% | pest or weed control at 70 g/ha [2, 13]: 45 to 59%; pest or weed control at 140 g/ha [2, 13]: 45 to 59%; pest or weed control at 70 g/ha [2, 14]: 95 to 100%; pest or weed control at 140 g/ha [2, 14]: 95 to 100%; pest or weed control at 70 g/ha [2, 15]: 85 to 94%; pest or weed control at 140 g/ha [2, 15]: 85 to 94%; pest or weed control at 70 g/ha [2, 16]: 60 to 74%; pest or weed control at 140 g/ha [2, 16]: 75 to 84%; pest or weed control at 70 g/ha [2, 17]: 45 to 59%; pest or weed control at 140 g/ha [2, 17]: 60 to 74%; melting point: 124 to 126 °C
4 | Nc1c(F)c(-c2ccc(I)c(F)c2F)nc(C(=O)O)c1Cl [Compound 141, 4-amino-3-chloro-6-(2,3-difluoro-4-iodophenyl)-5-fluoropicolinic acid] | 85 to 94% | 85 to 94% | 95 to 100% | 95 to 100% | 95 to 100% | 95 to 100% | 85 to 94% | 85 to 94% | 95 to 100% | 95 to 100% | 95 to 100% | 95 to 100% | 95 to 100% | 95 to 100% | 0 to 29% | 95 to 100% | 75 to 84% | 75 to 84% | 85 to 94% | 95 to 100% | pest or weed control at 70 g/ha [2, 13]: 0 to 29%; pest or weed control at 140 g/ha [2, 13]: 0 to 29%; pest or weed control at 70 g/ha [2, 14]: 75 to 84%; pest or weed control at 140 g/ha [2, 14]: 95 to 100%; pest or weed control at 70 g/ha [2, 15]: 85 to 94%; pest or weed control at 140 g/ha [2, 15]: 85 to 94%; pest or weed control at 70 g/ha [2, 16]: 60 to 74%; pest or weed control at 140 g/ha [2, 16]: 60 to 74%; pest or weed control at 70 g/ha [2, 17]: 95 to 100%; pest or weed control at 140 g/ha [2, 17]: 95 to 100%; melting point: 155 to 157 °C

Reference: US9113629B2, “4-amino-6-(4-substituted-phenyl)-picolinates and 6-amino-2-(4-substituted-phenyl)-pyrimidine-4-carboxylates and their use as herbicides” (DOW AGROSCIENCES LLC, priority 2013, dated 2015)
